Data as given in US5962409A, “Somatostatin-analogous cyclic peptides with inhibitory activity on growth hormone” (priority 1995, dated 1999).

Assays:
[1] = test system: 57 kDa complex (somatostatin receptor sub-type 2); test: Displacement of radioiodinated 11-Tyr somatostatin-14 from somatostatin receptors, 57 kDa complex (gel electrophoresis/autoradiography); assay type: binding, rat and human; details: 10^-6 M; auto-radiographies in electrophoresis
Experimental: (§1) The study of the binding of the peptides on somatostatin receptors has been carried out according to the displacement method which consists in replacing from the receptors the radioligand (11-Tyr radioiodinated somatostatin 14-) before electrophoretic analysis on a denaturant polyacrylaminde gel (Prevost et al. European J. Cancer, 11, 1589-1592,1993).
(§2) The biological activity was tested on rat and human cell lines, namely a GH 3 rat cell line established starting from a pituitary tumor with two 70 and 57 kDa receptors; MCF7 human cell line established starting from a pleural effusion of a breast carcinoma with two main 57 and 42 kDa receptors and human cell line established starting from a small cell carcinoma of the lung with a 57 kDa receptor.
(§3) The tested peptides were suspended in 0.1% acetic acid at the final concentration of 10 mM and stored at 4° C.
(§4) Tests were carried out at a 10^-6 M concentration.

[2] = test system: 70 kDa complex (1 or 4 sub-type somatostatin receptors), GH 3 rat cell line; test: Displacement of radioiodinated 11-Tyr somatostatin-14 from somatostatin receptors, 70 kDa complex (gel electrophoresis/autoradiography); assay type: binding; details: 10^-6 M; auto-radiographies in electrophoresis
Experimental: as §1, §2, §3, §4

Row | Compound | displacement of the 57 kDa radioligand-receptor complex [1] | suppression of the 70 kDa radioligand-receptor complex [2]
1 | Antarelix | not | 
2 | C[C@H](N)C(=O)NCC(=O)N[C@H]1CSSC[C@@H](C(=O)O)NC(=O)[C@H](CO)NC(=O)[C@H]([C@@H](C)O)NC(=O)[C@H](Cc2ccccc2)NC(=O)[C@H]([C@@H](C)O)NC(=O)[C@H](CCCCN)NC(=O)[C@H](Cc2c[nH]c3ccccc23)NC(=O)[C@H](Cc2ccccc2)NC(=O)[C@H](Cc2ccccc2)NC(=O)[C@H](CC(N)=O)NC(=O)[C@H](CCCCN)NC1=O [somatostatin-14] |  | suppressed
